Measured values taken from US12186353B2, “Method of reducing neuronal microtubule binding protein Tau (Tau) levels” (ADAERATA, LIMITED PARTNERSHIP, priority 2018, dated 2025).
Peptide text beside a SMILES is read from it. * marks the point of attachment. Cbz = O=C(OCc1ccccc1)*

Assays:
[1] = system: Tau::GFP fusion protein; assay: Intracellular Tau::GFP fluorescence in stable inducible HEK293 cells with proteasome or lysosome inhibitor; assay type: cell-based; conditions: inhibitor 25 uM for 4 h before fixation
Experimental: FIG. 7A Stable inducible cell line HEK293 that express a Tau::GFP fusion protein was transfected with Control Myc or Numb72::Myc, and the Tau::GFP expression was activated by adding Doxycycline 6 h later. The cells were fixed 48 h later and stained for Myc. FIG. 7B. The mean intensity (±SEM) of intracellular Tau::GFP fluorescence in transfected cells was quantified. Cells were treated with vehicle, MG132 (a proteasome inhibitor, 25 uM) or Chloroquine (a lysosome inhibitor, 25 uM) for 4 h before fixation and Myc staining. Quantification represents mean intensity +/− SEM, *p≤0.01; Anova 1-way test.
The potential role of the proteasome and of the lysosome on the ability of Numb to reduce Tau levels was assessed. A stable inducible cell line (HEK293) expressing a Tau::GFP fusion protein was transfected with
Numb72 or a control empty vector. The intracellular Tau::GFP levels was compared when the cells were treated with a proteasome inhibitor (MG132), a lysosome inhibitor (Chloroquine) or a control (vehicle). […] (FIGS. 7A-B).

[2] = system: RGCs; assay: RGC survival after intravitreal NMDA in Numb cKO and control mice; assay type: in vivo, mouse; conditions: sublethal doses of NMDA in the eyes, 3 days later, Numb cKO mice compared to control
Experimental: FIGS. 5A-C: Down regulation of Tau in Numb cKO RGCs rescues survival to control levels after NMDA-mediated excitotoxicity. FIG. 5A. Immunostaining for Brn3b on retina flat mounts in control and cKO 5-month-old mice 3 days after injection of saline (left panels, FIG. 5A) or NMDA (10 mM; right panels FIG. 5A). Images were taken in the ganglion cell layer. FIGS. 5B and C. Quantification of the number of Brn3b+RGCs per mm^2 in control and cKO mice 3 days after intravitreal injection of saline (FIG. 5B) or NMDA (FIG. 5C). Error bars represent SEM, * p≤0.05, n.s. non-significant; Student's t test. FIG. 5D. Analysis of Tau levels by western blot in retinal extract 24 h, 48 h or 72 h after injection of siRNA against Tau in the eye. […] FIG. 5E. […] Quantification of number of Brn3b RGC per mm^2 in control and cKO mice 72 h after injection. […]
RGCs survival was assessed by counting Brn3b-positive cells on retina flat mounts the within four square (212 um×212 um) areas around the optic nerve disc, and averaging this number per retina and calculate with the area by multiplied by the total area of square. Cell type quantification in retinal section were made by averaging the total number of positive cells for specific markers in a […] region of the central and peripheral retina on 4 different retinal sections per animal. […]

[3] = system: Tau; assay: Western blot of Tau fusion protein levels in HEK293T cells co-expressing Numb isoforms; assay type: cell-based; conditions: 48 hours after transfection
From the text: FIGS. 6A-I: Isoform Numb-72 interacts with Tau and regulates Tau level. FIG. 6A. Schematic of 4 Numb isoforms, differing with the presence or the absence of an insertion (arrowhead) in PTB domain arrowhead, and the presence or the absence of an insertion in the proline-rich region (PRR). FIG. 6B. Coimmunoprecipitation of Tau and 4 isoforms of Numb in HEK293 cells. Each Numb isoform was transfected in HEK293T cells together with a flag-tagged version of Tau and immunoprecipitation was perform 24 hours later with a flag antibody and blotted for Numb. […] FIG. 6C. Detection of Tau::GFP level in presence of 4 isoforms of Numb by western blot in HEK293. All the Numb isoforms were transfected with a Tau::GFP fusion protein in HEK293T cells and the levels of Tau::GFP was analysed by western blot 48 hours after transfection. FIG. 6D. Schematic representation of DNA construct of a human-medulloblastoma-derived cell line (DAOY) expressing human Tau fused with EGFP (Lasagna-Reeves et al., 2016). Additionally, this cell line expresses DsRed upstream of an internal ribosomal entry site (IRES), which is translated independently of the Tau-GFP protein. DsRed-IRES-Tau::EGFP expressing cells were used to assess the abundance of Tau by monitoring the Tau-GFP to DsRed fluorescence ratio. FIG. 6E. DsRed and Tau::EGF expression in Daoy cells, transfected with Myc only construct. FIGS. 6F-J. Fluorescence-activated cell sorting (FACs) analysis of the 4 Numb isoforms affected 3 days after transfection on ratio DsRed versus DsRed and GFP-positives cells compared to the control (Myc-Tag). FIG. 6K Quantification represents fold change for 5 experiments, +/− SEM, **p≤0.001; n.s. non-significant Anova 1-way test.
Numb72::Myc. HEK293T cells were transfected with Jet Prime using the following constructs Tau::Flag, Tau::GFP, Numb65, Numb66, Numb71 and Numb72.
Cells were harvested, and lysed in a NP-40 buffer (50 mm TRIS, pH 8.0, 150 mm NaCl, 1.0% NP-40 with Complete Protease Inhibitor Cocktail (Roche)). For immunoblotting, 40 μg of protein samples for in vivo blot and 10 ug for in vitro blot were loaded on a 10% acrylamide SDS-PAGE gels for separation by electrophoresis migration and then transferred onto PVDF membranes using transblot machine (Millipore). […] The primary antibody was detected with an HRP-conjugated goat anti-rabbit (1:10,000; Jackson Immunoresearch) in 0.5% dry milk in TBST. […]
To determine whether increasing the levels of Numb could affect the levels of Tau, the inventors co-expressed all isoforms of Numb together with a Tau::Venus fusion protein in HEK293T cells and analyzed the levels of Tau::Venus by western blot 48 hours after transfection.

| Molecule | effect of inhibitor on the ability of Numb72 to reduce Tau::GFP levels [1] | levels of Tau::Venus by western blot [3] | also measured |
| --- | --- | --- | --- |
| CCN(CC)CCCC(C)Nc1ccnc2cc(Cl)ccc12 (stereo not drawn) [Chloroquine] | neither the proteasome inhibitor nor the lysosome inhibitor abolished the ability of Numb72 to reduce Tau::GFP levels | – | – |
| CC(C)C[C@@H](C=O)NC(=O)[C@H](CC(C)C)NC(=O)[C@H](CC(C)C)NC(=O)OCc1ccccc1 [MG132] (Cbz-Leu-Leu-Leu-aldehyde) | neither the proteasome inhibitor nor the lysosome inhibitor abolished the ability of Numb72 to reduce Tau::GFP levels | – | – |
| CN[C@H](CC(=O)O)C(=O)O [NMDA, N-methyl-D-aspartate] | – | – | RGC numbers [2]: two-fold reduction of RGC numbers |
| Numb-71: 71 kDa Numb isoform with short PTB domain and long PRR; human isoform 3 (SEQ ID NO: 6) (protein, homo sapiens) MNKLRQSFRRKKDVYVPEASRPHQWQTDEEGVRTGKCSFPVKYLGHVEVDESRGMHICEDAVKRLKATGKKAVKAVLWVSADGLRVVDEKTKDLIVDQTIEKVSFCAPDRNFDRAFSYICRDGTTRRWICHCFMAVKDTGERLSHAVGCAFAACLERKQKREKECGVTATFDASRTTFTREGSFRVTTATEQAEREEIMKQMQDAKKAETDKIVVGSSVAPGNTAPSPSSPTSPTSDATTSLEMNNPHAIPRRHAPIEQLARQGSFRGFPALSQKMSPFKRQLSLRINELPSTMQRKTDFPIKNAVPEVEGEAESISSLCSQITNAFSTPEDPFSSAPMTKPVTVVAPQSPTFQANGTDSAFHVLAKPAHTALAPVAMPVRETNPWAHAPDAANKEIAATCSGTEWGQSSGAASPGLFQAGHRRTPSEADRWLEEVSKSVRAQQPQASAAPLQPVLQPPPPTAISQPASPFQGNAFLTSQPVPVGVVPALQPAFVPAQSYPVANGMPYPAPNVPVVGITPSQMVANVFGTAGHPQAAHPHQSPSLVRQQTFPHYEASSATTSPFFKPPAQHLNGSAAFNGVDDGRLASADRHTEVPTGTCPVDPFEAQWAALENKSKQRTNPSPTNPFSSDLQKTFEIEL | – | did not affect Tau levels | – |
| Numb-65: 65 kDa Numb isoform with short PTB domain and short PRR; human isoform 4 (SEQ ID NO: 7) (protein, homo sapiens) MNKLRQSFRRKKDVYVPEASRPHQWQTDEEGVRTGKCSFPVKYLGHVEVDESRGMHICEDAVKRLKATGKKAVKAVLWVSADGLRVVDEKTKDLIVDQTIEKVSFCAPDRNFDRAFSYICRDGTTRRWICHCFMAVKDTGERLSHAVGCAFAACLERKQKREKECGVTATFDASRTTFTREGSFRVTTATEQAEREEIMKQMQDAKKAETDKIVVGSSVAPGNTAPSPSSPTSPTSDATTSLEMNNPHAIPRRHAPIEQLARQGSFRGFPALSQKMSPFKRQLSLRINELPSTMQRKTDFPIKNAVPEVEGEAESISSLCSQITNAFSTPEDPFSSAPMTKPVTVVAPQSPTFQGTEWGQSSGAASPGLFQAGHRRTPSEADRWLEEVSKSVRAQQPQASAAPLQPVLQPPPPTAISQPASPFQGNAFLTSQPVPVGVVPALQPAFVPAQSYPVANGMPYPAPNVPVVGITPSQMVANVFGTAGHPQAAHPHQSPSLVRQQTFPHYEASSATTSPFFKPPAQHLNGSAAFNGVDDGRLASADRHTEVPTGTCPVDPFEAQWAALENKSKQRTNPSPTNPFSSDLQKTFEIEL | – | did not affect Tau levels | – |
| Numb-66: 66 kDa Numb isoform with long PTB domain and short PRR; human isoform 2 (SEQ ID NO: 3) (protein, homo sapiens) MNKLRQSFRRKKDVYVPEASRPHQWQTDEEGVRTGKCSFPVKYLGHVEVDESRGMHICEDAVKRLKAERKFFKGFFGKTGKKAVKAVLWVSADGLRVVDEKTKDLIVDQTIEKVSFCAPDRNFDRAFSYICRDGTTRRWICHCFMAVKDTGERLSHAVGCAFAACLERKQKREKECGVTATFDASRTTFTREGSFRVTTATEQAEREEIMKQMQDAKKAETDKIVVGSSVAPGNTAPSPSSPTSPTSDATTSLEMNNPHAIPRRHAPIEQLARQGSFRGFPALSQKMSPFKRQLSLRINELPSTMQRKTDFPIKNAVPEVEGEAESISSLCSQITNAFSTPEDPFSSAPMTKPVTVVAPQSPTFQGTEWGQSSGAASPGLFQAGHRRTPSEADRWLEEVSKSVRAQQPQASAAPLQPVLQPPPPTAISQPASPFQGNAFLTSQPVPVGVVPALQPAFVPAQSYPVANGMPYPAPNVPVVGITPSQMVANVFGTAGHPQAAHPHQSPSLVRQQTFPHYEASSATTSPFFKPPAQHLNGSAAFNGVDDGRLASADRHTEVPTGTCPVDPFEAQWAALENKSKQRTNPSPTNPFSSDLQKTFEIEL | – | significantly reduced the levels of Tau | – |
